Experimental data published in PubChem BioAssay AID486 (Columbia University Molecular Screening Center, 2006).
The source made the active and inactive calls.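 The calls were made as follows: active = ranking score of 15 or more out of 100, based on fitted potency or summed per-dose inhibition deviations; inactive = the rest.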

System: exon1htt(103Q)-mCFP cells, aggregate imaging, high-content
Assay: mutant huntingtin aggregate clearance potency, dose response, imaging, exon1htt(103Q)-mCFP cells, high-content imaging (AID 486)

Row | SMILES | IC50
1 | CN(C)[C@@H]1C(=O)C(C(N)=O)=C(O)[C@@]2(O)C(=O)C3=C(O)c4c(O)cccc4[C@@](C)(O)[C@H]3[C@H](O)[C@@H]12 | < 0.1 µM
2 | Cc1ccc(O)c(C(=O)c2cc(C#N)c(=O)n(CC3CCCO3)c2)c1 (stereo not given) | > 8 µM (inactive)
3 | CC(OC1=CC(=O)CCC1)C(=O)c1ccccc1 (stereo not given) | > 8 µM (inactive)
4 | CN(C)C(=O)N1CCC(C(=O)NC2CCCCCCC2)CC1 | > 8 µM (inactive)
5 | Cc1cc(N2CCN(C3CCCC3)CC2)n2c(nc3ccccc32)c1C#N | > 8 µM (inactive)
6 | CC1(C)CC(=O)C(C=NCCO)=C(O)C1 | > 8 µM (inactive)
7 | O=C(O)CCn1[nH]c(=O)ccc1=O | > 8 µM (inactive)
8 | Cc1ccccc1NC1=NCCCS1 | > 8 µM (inactive)
9 | O=C(C1COc2ccccc2O1)N1CCCC1 (stereo not given) | > 8 µM (inactive)
10 | O=C(Nc1ccccc1)N(O)c1ccc(Cl)cc1 | > 8 µM (inactive)
11 | O=C(NCc1ccco1)c1ccccc1Nc1ccc(F)cc1 | > 8 µM (inactive)
12 | CCCCNC(=O)CSc1nc2ccc(N3CCOCC3)cc2c(=O)n1CCc1ccccc1 | > 8 µM (inactive)
13 | CCOC(=O)C1=C(C)NC(SC(C)=O)=NC1c1ccc(OC(C)=O)c(OC)c1 (stereo not given) | > 8 µM (inactive)
14 | Cc1ccc(/C=c2\sc3nc(-c4ccccc4Br)nn3c2=O)o1 | > 8 µM (inactive)
15 | OCCNC1=NCCN1 | > 8 µM (inactive)
16 | Cn1c(=O)oc2cc(S(=O)(=O)NC3CCN(Cc4ccccc4)CC3)ccc21 | > 8 µM (inactive)
17 | COc1ccc(-c2nnc(SCC#N)o2)cc1 | > 8 µM (inactive)
18 | O=C(Nc1nccs1)c1ccc(Cl)c(S(=O)(=O)N2CCCCC2)c1 | > 8 µM (inactive)
19 | O=C1Nc2ccccc2OC1CC(=O)N1CCCC1 (stereo not given) | > 8 µM (inactive)
20 | COc1cccc(-c2nnc3sc(C4CCCCC4)nn23)c1 | > 4 µM (inactive)
21 | CSc1ccccc1NC(=O)c1c(Br)cnn1C | > 8 µM (inactive)
22 | CCOC(=O)C1CCN(c2nc3ccccc3nc2C(C#N)C(=O)OC(C)C)CC1 (stereo not given) | > 8 µM (inactive)
23 | CC1(C)Cc2ccccc2C(N)=C1C#N | > 8 µM (inactive)

Row | SMILES | IC50
24 | Cc1cc(C)c(OCC(=O)Nc2cccc(O)c2)cc1C | > 8 µM (inactive)
25 | Cn1c(=O)c2c(nc(NCc3ccc4c(c3)OCO4)n2Cc2ccccc2F)n(C)c1=O | > 8 µM (inactive)
26 | COc1ccc(OC)c(C(=O)CSc2nnc(-c3ccc(OC)c(OC)c3)o2)c1 | > 8 µM (inactive)
27 | COc1cccc(C2C(C(=O)c3ccc(C)o3)=C(O)C(=O)N2CCCN(C)C)c1 (stereo not given) | > 8 µM (inactive)
28 | C#CC1(O)CC(C)N(C)C(C)C1 (stereo not given) | > 8 µM (inactive)
29 | CCn1cc(C(=O)NCCC2=CCCCC2)c(=O)c2cc(S(=O)(=O)N(C)C)ccc21 | > 8 µM (inactive)
30 | CN(C)[C@@H]1C(=O)C(C(N)=O)=C(O)[C@@]2(O)C(=O)C3=C(O)c4c(O)ccc(Cl)c4[C@@](C)(O)C3C[C@@H]12 (stereo not given in full) | < 0.01 µM
31 | Cn1cccc1Cc1nnc(SCC(=O)NCC2CCCO2)n1-c1ccc(F)cc1 (stereo not given) | > 8 µM (inactive)
32 | CC(C)CCNC(=O)C(C)N(Cc1ccc(F)cc1)C(=O)c1ccc(CN2CCCCC2)o1 (stereo not given) | > 8 µM (inactive)
33 | CS(=O)(=O)N1CCN(c2ccccc2NC(=O)c2ccc(-c3ccc(Cl)cc3Cl)o2)CC1 | > 8 µM (inactive)
34 | CCOC(=O)c1sc2ncn(/N=C/N(C)C)c(=O)c2c1C | > 8 µM (inactive)
35 | COc1ccccc1-n1c(=O)c2c3c(sc2n2c(SC(C)C)nnc12)CCC3 | > 8 µM (inactive)
36 | O=C(Nc1cnn(Cc2ccc(Cl)cc2Cl)c1)c1noc2c1CCCC2 | > 8 µM (inactive)
37 | COc1ccc(Cc2nnc3n2N=C(c2cc4ccccc4o2)CS3)cc1OC | > 8 µM (inactive)
38 | CC(C)(C)OC(=O)N1CC=C2C(C#N)=C(N)C(C#N)(C#N)[C@H](c3cccnc3)[C@H]2C1 | > 8 µM (inactive)
39 | Cc1c(C(=O)NCc2cccnc2)oc2ccc(S(=O)(=O)N3CCCCC3)cc12 | > 8 µM (inactive)
40 | O=C(CSc1nnc(-c2ccco2)n1-c1ccccc1)N1CCN(C(=O)c2ccco2)CC1 | > 8 µM (inactive)
41 | CCOc1cc(C(=O)Nc2ncccn2)cc(OCC)c1OCC | > 8 µM (inactive)
42 | COc1ccc(CCNC(=O)CSc2nnc(CNc3ccc(Cl)cc3)o2)cc1OC | > 8 µM (inactive)
43 | COc1ccc(S(=O)(=O)Cc2ccc(C(=O)NCCc3ccc(S(N)(=O)=O)cc3)o2)cc1 | > 8 µM (inactive)
44 | Cc1nc(NC2=NCN(CC3CCCO3)CN2)nc2ccccc12 (stereo not given) | > 8 µM (inactive)
45 | CC(C)(C)NC(=O)CN(Cc1cccs1)C(=O)c1csnn1 | > 8 µM (inactive)
